Earlier results in PMC9516332 (Frontiers in Oncology, 2022).
Where two headings read alike, the source gives them in different places.

Columns and labels:
Conditions in all cases: cited from earlier work
[1] = target: T1, panel of 255 wild-type kinases (Homo sapiens, UniProt O15264)
T1 sequence (O15264 1-365): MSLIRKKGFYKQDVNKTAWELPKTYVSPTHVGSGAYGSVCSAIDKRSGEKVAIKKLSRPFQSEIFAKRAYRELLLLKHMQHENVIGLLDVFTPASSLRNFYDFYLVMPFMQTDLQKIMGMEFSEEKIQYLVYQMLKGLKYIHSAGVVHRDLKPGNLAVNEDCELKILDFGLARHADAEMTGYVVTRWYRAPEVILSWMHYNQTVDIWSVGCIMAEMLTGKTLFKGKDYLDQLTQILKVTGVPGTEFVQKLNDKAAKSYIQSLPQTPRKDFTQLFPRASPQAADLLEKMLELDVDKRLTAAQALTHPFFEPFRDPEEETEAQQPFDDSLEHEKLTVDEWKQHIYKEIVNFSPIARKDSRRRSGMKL

[2] = target: T2, panel of 255 wild-type kinases (Homo sapiens, UniProt P51817)
T2 sequence (P51817 1-358): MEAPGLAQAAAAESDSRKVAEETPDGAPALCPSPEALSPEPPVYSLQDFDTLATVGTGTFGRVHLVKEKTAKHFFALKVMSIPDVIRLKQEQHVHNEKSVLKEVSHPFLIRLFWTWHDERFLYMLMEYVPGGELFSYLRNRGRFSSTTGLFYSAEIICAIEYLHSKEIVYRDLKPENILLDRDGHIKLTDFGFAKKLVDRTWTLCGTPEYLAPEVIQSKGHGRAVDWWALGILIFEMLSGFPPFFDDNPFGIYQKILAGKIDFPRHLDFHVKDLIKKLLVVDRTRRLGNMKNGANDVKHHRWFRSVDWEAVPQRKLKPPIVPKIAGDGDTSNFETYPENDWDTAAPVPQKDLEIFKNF

[3] = target: panel of 255 wild-type kinases (Homo sapiens, UniProt P57059)
[4] = target: T3, panel of 255 wild-type kinases (Homo sapiens, UniProt Q13470)
T3 sequence (Q13470 1-666): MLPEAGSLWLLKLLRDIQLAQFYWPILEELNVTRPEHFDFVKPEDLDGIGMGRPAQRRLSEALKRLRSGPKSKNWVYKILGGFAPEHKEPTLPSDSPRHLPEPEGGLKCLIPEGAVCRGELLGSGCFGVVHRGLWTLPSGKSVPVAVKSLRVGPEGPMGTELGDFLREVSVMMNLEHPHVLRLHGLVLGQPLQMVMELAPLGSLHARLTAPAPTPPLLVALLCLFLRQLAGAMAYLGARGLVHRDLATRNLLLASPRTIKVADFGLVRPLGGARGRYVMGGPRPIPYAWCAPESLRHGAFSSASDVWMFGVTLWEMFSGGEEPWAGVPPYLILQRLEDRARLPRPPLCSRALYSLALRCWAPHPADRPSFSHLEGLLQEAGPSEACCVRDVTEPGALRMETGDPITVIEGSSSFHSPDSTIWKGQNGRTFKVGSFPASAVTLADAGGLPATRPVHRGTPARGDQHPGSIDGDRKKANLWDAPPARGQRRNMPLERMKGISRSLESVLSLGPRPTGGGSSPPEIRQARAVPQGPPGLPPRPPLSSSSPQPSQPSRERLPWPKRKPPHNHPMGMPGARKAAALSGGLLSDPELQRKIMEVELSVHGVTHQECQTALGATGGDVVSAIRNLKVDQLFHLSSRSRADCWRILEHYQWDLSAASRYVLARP

[5] = target: T4, panel of 255 wild-type kinases (Homo sapiens, UniProt Q96PY6)
T4 sequence (Q96PY6 1-1258): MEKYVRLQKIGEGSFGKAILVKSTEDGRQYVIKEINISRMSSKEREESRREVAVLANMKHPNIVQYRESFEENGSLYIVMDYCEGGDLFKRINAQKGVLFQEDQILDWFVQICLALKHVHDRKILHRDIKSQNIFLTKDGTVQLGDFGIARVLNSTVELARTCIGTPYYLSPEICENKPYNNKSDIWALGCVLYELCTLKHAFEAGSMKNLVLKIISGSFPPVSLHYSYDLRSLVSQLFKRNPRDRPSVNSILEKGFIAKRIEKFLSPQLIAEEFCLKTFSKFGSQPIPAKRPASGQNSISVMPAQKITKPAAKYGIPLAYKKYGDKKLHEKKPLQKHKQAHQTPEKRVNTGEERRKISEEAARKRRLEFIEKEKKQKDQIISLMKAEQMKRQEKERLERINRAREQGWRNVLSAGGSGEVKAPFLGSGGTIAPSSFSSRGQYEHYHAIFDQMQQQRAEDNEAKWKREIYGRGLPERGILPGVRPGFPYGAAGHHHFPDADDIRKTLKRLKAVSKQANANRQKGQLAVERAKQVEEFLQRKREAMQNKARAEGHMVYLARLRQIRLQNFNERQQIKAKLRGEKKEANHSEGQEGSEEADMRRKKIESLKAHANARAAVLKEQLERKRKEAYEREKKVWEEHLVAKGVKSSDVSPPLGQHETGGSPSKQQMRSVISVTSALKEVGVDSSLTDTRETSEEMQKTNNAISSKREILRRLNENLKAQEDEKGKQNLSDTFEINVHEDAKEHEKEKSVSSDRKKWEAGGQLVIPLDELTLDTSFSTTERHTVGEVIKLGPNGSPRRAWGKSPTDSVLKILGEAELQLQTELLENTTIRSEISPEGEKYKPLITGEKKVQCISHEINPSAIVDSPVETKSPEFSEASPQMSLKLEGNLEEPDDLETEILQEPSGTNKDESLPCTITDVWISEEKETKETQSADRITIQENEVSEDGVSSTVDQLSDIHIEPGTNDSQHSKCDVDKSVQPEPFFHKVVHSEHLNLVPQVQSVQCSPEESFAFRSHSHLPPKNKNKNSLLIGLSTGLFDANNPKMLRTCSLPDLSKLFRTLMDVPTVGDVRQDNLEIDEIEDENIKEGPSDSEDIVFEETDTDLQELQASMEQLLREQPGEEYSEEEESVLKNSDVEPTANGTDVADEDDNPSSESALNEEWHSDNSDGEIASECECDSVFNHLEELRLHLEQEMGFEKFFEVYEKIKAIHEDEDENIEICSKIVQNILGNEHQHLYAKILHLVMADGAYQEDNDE

[6] = p38δ, 1 µmol/L single concentration, ref DOI: 10.1158/1535-7163.MCT-18-0877
[7] = kinase PRKX, 1 µmol/L single concentration, ref DOI: 10.1158/1535-7163.MCT-18-0877
[8] = kinase SIK, 1 µmol/L single concentration, ref DOI: 10.1158/1535-7163.MCT-18-0877
[9] = kinase TNK1, 1 µmol/L single concentration, ref DOI: 10.1158/1535-7163.MCT-18-0877
[10] = NEK1, 1 µmol/L single concentration, ref DOI: 10.1158/1535-7163.MCT-18-0877
[11] = p38δ, 1 µmol/L single concentration, ref DOI: 10.1371/journal.pone.0092146
[12] = kinase PRKX, 1 µmol/L single concentration, ref DOI: 10.1371/journal.pone.0092146
[13] = kinase SIK, 1 µmol/L single concentration, ref DOI: 10.1371/journal.pone.0092146
[14] = kinase TNK1, 1 µmol/L single concentration, ref DOI: 10.1371/journal.pone.0092146
[15] = NEK1, 1 µmol/L single concentration, ref DOI: 10.1371/journal.pone.0092146

| Structure (SMILES) | %-inhibition, p38δ [1, 6] | %-inhibition at 1 µmol/L, PRKX [2, 7] | %-inhibition at 1 µmol/L, SIK [3, 8] | %-inhibition at 1 µmol/L, TNK1 [4, 9] | %-inhibition, NEK1 [5, 10] | %-inhibition, p38δ [1, 11] | %-inhibition at 1 µmol/L, PRKX [2, 12] | %-inhibition at 1 µmol/L, SIK [3, 13] | %-inhibition at 1 µmol/L, TNK1 [4, 14] | %-inhibition, NEK1 [5, 15] | further results |
| --- | --- | --- | --- | --- | --- | --- | --- | --- | --- | --- | --- |
| O=C(c1ccc(F)c(F)c1Nc1ccc(I)cc1F)N1CC(O)([C@@H]2CCCCN2)C1 [cobimetinib] | -6% | 2.17% | 0.384% | 4.29% | 4.29% |  |  |  |  |  |  |
| CO[C@@H]1[C@H](N(C)C(=O)c2ccccc2)C[C@H]2O[C@]1(C)n1c3ccccc3c3c4c(c5c6ccccc6n2c5c31)C(=O)NC4 [midostaurin] | 3.36% | 97% | 99% | 101% | 13% |  |  |  |  |  |  |
| C=CC(=O)N1CCC[C@@H](n2nc(-c3ccc(Oc4ccccc4)cc3)c3c(N)ncnc32)C1 [ibrutinib] | -3.68% | 0.66% | 8% | 6% | 3.73% |  |  |  |  |  |  |
| C[C@@H](Oc1cc(-c2cnn(C3CCNCC3)c2)cnc1N)c1c(Cl)ccc(F)c1Cl [crizotinib] |  |  |  |  |  | -3.41% | -7% | 26% | 41% | 2.24% |  |
| Cc1cc(Nc2ncc(Cl)c(Nc3ccccc3S(=O)(=O)C(C)C)n2)c(OC(C)C)cc1C1CCNCC1 [ceritinib] | 3% | 11% | 15% | 101% | -1.68% |  |  |  |  |  |  |
| CC(C)(C)c1nc(-c2cccc(NS(=O)(=O)c3c(F)cccc3F)c2F)c(-c2ccnc(N)n2)s1 [dabrafenib] |  |  |  |  |  | -3.43% | -1.55% | 100% | 100% | 24% |  |
| C=CC(=O)Nc1cc(Nc2nccc(-c3cn(C)c4ccccc34)n2)c(OC)cc1N(C)CCN(C)C [osimertinib] | -5.38% | 1.37% | 22% | 100% | 2.43% |  |  |  |  |  |  |
| CC#CC(=O)N1CCC[C@H]1c1nc(-c2ccc(C(=O)Nc3ccccn3)cc2)c2c(N)nccn12 [acalabrutinib] | -1.74% | -4.59% | 0.256% | -1.8% | -7.46% |  |  |  |  |  |  |
| COc1cc(N2CCC(N3CCN(C)CC3)CC2)ccc1Nc1ncc(Cl)c(Nc2ccccc2P(C)(C)=O)n1 [brigatinib] |  |  |  |  |  |  |  |  |  |  | %-inhibition, p38δ [1]: 0.87%; %-inhibition at 1 µmol/L, PRKX [2]: 47%; %-inhibition at 1 µmol/L, SIK [3]: 99%; %-inhibition at 1 µmol/L, TNK1 [4]: 101%; %-inhibition, NEK1 [5]: 8% |
| CCCS(=O)(=O)Nc1ccc(F)c(C(=O)c2c[nH]c3ncc(-c4ccc(Cl)cc4)cc23)c1F [vemurafenib] |  |  |  |  |  | 8% | -3.45% | 24% | 13% | -2.74% |  |
| CCc1cc2c(cc1N1CCC(N3CCOCC3)CC1)C(C)(C)c1[nH]c3cc(C#N)ccc3c1C2=O [alectinib] | 0.128% | 1.81% | 12% | 11% | 5% |  |  |  |  |  |  |
| CC(=O)Nc1cccc(-n2c(=O)n(C3CC3)c(=O)c3c(Nc4ccc(I)cc4F)n(C)c(=O)c(C)c32)c1 [trametinib] |  |  |  |  |  | -2.7% | -1.19% | -3% | -2.58% | -5% |  |
